Test results published in EP4467141A1, “PYRAZOLO-QUINOLINES AS SELECTIVE INHIBITORS OF GENOTOXIC STRESS-INDUCED IKK/NF- KB PATHWAYS FOR CANCER THERAPY” (Max-Delbrück-Centrum für Molekulare Medizin in der …, priority 2023, dated 2024).
Like-named read-outs stand apart in the source and are kept apart here.

Assays:
Assay in all cases: Kinase panel study
Assay type in all cases: biochemical
Conditions in all cases: for inhibition at 1 µM: 1000nM
IRAK1 = biological target: T1, IRAK1 (Homo sapiens, UniProt P51617)
T1 construct: purchased Thermo Fisher Scientific
Outline: (§1)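 Inhibition was measured in an outsourced in vitro kinase panel using the ZLyte or Adapta format under the provider's standard procedures. Values are percent inhibition at 10 µM or 1 µM compound, and IC50s were also obtained.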

AKT1 (PKB alpha) = biological target: T2, AKT1 (PKB alpha) (Homo sapiens, UniProt P31749)
T2 construct: purchased Thermo Fisher Scientific
Outline: as §1

GSG2 (Haspin) = biological target: T3, GSG2 (Haspin) (Homo sapiens, UniProt Q8TF76)
T3 construct: purchased Thermo Fisher Scientific
T3 sequence (Q8TF76 1-798): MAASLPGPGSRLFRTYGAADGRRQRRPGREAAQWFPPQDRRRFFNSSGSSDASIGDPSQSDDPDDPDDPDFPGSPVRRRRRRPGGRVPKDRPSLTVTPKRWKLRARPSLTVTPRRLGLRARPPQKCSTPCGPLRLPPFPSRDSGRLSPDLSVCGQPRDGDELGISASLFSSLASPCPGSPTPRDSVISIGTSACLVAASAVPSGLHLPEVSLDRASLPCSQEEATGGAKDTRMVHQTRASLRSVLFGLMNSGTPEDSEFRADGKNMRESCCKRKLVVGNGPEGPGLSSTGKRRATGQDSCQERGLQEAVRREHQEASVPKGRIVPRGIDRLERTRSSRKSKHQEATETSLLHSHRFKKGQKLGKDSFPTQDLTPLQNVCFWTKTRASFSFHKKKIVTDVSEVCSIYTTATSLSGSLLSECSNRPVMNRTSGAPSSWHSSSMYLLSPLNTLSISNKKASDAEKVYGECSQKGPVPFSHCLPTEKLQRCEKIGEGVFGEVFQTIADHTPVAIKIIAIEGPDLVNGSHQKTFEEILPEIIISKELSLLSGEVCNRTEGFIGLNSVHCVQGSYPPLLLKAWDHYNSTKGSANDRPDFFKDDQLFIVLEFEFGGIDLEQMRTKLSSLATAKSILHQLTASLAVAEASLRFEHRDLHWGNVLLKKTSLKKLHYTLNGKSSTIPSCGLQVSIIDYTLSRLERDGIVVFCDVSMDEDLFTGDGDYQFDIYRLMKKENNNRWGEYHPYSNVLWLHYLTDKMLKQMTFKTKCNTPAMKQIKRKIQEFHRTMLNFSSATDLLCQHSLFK
Outline: as §1

PI4KB (PI4K beta) = biological target: T4, PI4KB (PI4K beta) (Homo sapiens, UniProt Q9UBF8)
T4 construct: purchased Thermo Fisher Scientific
Outline: as §1

IKBKB (IKK beta) = biological target: T5, IKBKB (IKK beta) (Homo sapiens, UniProt O14920)
T5 construct: purchased Thermo Fisher Scientific
T5 sequence (O14920 1-756): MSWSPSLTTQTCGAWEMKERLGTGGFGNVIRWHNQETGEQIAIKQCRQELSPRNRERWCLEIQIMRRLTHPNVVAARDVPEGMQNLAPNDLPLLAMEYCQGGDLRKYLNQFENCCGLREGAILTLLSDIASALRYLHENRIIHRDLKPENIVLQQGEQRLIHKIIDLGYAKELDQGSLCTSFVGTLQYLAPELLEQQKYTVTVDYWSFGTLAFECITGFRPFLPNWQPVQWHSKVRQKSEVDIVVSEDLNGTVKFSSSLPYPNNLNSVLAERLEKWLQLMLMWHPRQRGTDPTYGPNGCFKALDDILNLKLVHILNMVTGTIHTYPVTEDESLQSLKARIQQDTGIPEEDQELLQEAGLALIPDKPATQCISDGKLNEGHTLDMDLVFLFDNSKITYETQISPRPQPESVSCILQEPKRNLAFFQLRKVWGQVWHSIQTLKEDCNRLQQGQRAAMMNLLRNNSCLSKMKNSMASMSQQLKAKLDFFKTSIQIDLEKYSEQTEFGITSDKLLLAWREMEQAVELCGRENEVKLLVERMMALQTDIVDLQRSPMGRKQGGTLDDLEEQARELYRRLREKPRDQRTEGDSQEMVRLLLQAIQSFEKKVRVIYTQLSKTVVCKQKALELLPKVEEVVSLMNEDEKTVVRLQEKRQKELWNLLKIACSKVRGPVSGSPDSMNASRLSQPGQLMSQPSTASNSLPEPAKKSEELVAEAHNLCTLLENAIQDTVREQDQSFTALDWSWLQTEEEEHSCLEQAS
Outline: as §1

[1] = read-out: Percentage of inhibition
[2] = 10000nM, read-out: Percentage of inhibition
[3] = IRAK1, compound at 10µM, read-out: % of Inhibition
[4] = AKT1 (PKB alpha), compound at 10µM, read-out: % of Inhibition
[5] = GSG2 (Haspin), compound at 10µM, read-out: % of Inhibition
[6] = PI4KB (PI4K beta), compound at 10µM, read-out: % of Inhibition
[7] = IKBKB (IKK beta), compound at 10µM, read-out: % of Inhibition

T1 sequence (P51617 whole entry): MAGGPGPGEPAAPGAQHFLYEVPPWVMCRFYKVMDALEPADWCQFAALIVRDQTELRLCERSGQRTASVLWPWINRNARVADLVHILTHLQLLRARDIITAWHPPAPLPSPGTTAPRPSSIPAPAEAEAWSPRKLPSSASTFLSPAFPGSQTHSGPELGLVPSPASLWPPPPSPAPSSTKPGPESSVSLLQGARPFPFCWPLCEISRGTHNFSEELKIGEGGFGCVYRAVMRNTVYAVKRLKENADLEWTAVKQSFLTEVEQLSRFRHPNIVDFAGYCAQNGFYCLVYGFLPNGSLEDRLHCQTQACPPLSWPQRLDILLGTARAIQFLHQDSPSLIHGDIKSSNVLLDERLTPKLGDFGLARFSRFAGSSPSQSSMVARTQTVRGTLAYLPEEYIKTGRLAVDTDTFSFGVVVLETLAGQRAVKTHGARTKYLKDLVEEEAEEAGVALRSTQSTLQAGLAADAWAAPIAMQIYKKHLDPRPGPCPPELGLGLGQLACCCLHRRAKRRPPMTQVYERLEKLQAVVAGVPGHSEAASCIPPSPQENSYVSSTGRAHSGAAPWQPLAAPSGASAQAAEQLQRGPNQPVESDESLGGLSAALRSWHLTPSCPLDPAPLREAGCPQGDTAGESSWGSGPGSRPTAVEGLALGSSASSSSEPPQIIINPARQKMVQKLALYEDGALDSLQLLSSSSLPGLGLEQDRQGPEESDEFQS
T4 sequence (Q9UBF8 whole entry): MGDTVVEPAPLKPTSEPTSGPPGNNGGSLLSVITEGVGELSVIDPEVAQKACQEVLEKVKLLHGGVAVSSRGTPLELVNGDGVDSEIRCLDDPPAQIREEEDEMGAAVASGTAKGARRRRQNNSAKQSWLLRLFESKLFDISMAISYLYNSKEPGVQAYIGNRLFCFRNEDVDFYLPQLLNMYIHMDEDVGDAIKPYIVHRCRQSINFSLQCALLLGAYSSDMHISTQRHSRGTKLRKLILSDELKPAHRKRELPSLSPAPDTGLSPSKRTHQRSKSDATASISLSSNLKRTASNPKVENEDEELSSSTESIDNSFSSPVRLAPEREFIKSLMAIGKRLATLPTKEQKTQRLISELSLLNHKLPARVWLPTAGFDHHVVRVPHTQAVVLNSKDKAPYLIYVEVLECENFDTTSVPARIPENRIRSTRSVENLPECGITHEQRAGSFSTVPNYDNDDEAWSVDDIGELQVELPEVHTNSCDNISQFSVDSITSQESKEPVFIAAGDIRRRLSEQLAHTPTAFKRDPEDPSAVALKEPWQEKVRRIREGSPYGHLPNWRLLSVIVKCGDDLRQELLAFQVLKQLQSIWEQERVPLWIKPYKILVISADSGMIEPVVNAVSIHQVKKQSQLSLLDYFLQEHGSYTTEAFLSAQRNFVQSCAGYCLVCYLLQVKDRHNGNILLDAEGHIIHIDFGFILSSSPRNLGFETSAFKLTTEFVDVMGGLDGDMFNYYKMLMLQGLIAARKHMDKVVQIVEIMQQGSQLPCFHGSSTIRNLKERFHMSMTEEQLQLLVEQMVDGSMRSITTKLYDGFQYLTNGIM
T2 sequence (P31749 whole entry): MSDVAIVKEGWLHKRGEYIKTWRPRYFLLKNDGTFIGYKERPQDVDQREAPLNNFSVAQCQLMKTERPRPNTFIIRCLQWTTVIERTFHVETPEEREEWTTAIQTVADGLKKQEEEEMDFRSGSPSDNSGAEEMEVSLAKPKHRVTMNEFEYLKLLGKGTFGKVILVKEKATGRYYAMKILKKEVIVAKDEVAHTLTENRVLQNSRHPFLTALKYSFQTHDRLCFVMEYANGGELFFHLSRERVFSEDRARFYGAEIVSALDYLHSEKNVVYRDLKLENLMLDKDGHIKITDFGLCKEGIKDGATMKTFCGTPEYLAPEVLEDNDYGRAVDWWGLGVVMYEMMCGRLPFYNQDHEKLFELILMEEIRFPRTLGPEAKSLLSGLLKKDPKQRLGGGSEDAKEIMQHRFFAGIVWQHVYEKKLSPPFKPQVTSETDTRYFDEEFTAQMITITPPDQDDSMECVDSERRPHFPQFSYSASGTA

inhibition at 10 µM (IRAK1; [3]) [%] | inhibition at 10 µM (AKT1 (PKB alpha); [4]) [%] | inhibition at 10 µM (GSG2 (Haspin); [5]) [%] | inhibition at 10 µM (PI4KB (PI4K beta); [6]) [%] | inhibition at 10 µM (IKBKB (IKK beta); [7]) [%] | Structure (SMILES) | inhibition at 1 µM (IRAK1; [1]) [%] | inhibition at 10 µM (IRAK1; [2]) [%] | inhibition at 1 µM (AKT1 (PKB alpha); [1]) [%] | inhibition at 10 µM (AKT1 (PKB alpha); [2]) [%] | inhibition at 1 µM (GSG2 (Haspin); [1]) [%] | inhibition at 10 µM (GSG2 (Haspin); [2]) [%] | inhibition at 1 µM (PI4KB (PI4K beta); [1]) [%] | inhibition at 10 µM (PI4KB (PI4K beta); [2]) [%] | inhibition at 1 µM (IKBKB (IKK beta); [1]) [%] | inhibition at 10 µM (IKBKB (IKK beta); [2]) [%]
– | – | – | – | – | COc1ccc2c(c1OC)c(=O)n1c3ccc(O)cc3c3ccnc2c31 [MW01, 5-Hydroxy-10,11-dimethoxy-9H-benzo[c]indolo[3,2,1-ij][1,5]naphthyridin-9-one] | 57 | 67 | 5 | 10 | 77 | 83 | 94 | 100 | 4 | 12
– | – | – | – | – | COc1ccc2cc3c(N)nn(C(=O)c4cccc(N(C)C)c4)c3nc2c1 [MW05, (3-Amino-7-methoxypyrazolo[3,4-b]quinolin-1-yl)-[3-(dimethylamino)phenyl]methanone] | 17 | -7 | 3 | 3 | 4 | 20 | -2 | 43 | 6 | 5
56 | 6 | 29 | 12 | 10 | COc1ccc2c(c1)c1ccnc3c4nc(OC)ccc4c(=O)n2c13 [MW01-E6, 5,15-dimethoxy-1,11,14-triazapentacyclo[10.7.1,0^2,7.0^8,^20.0^13,^18]icosa-2(7),3,5,8(20),9,11,13(18),14,16-nonaen-19-one] | – | – | – | – | – | – | – | – | – | –
69 | 12 | 88 | 81 | 16 | O=c1c2cnccc2c2nccc3c4cc(O)ccc4n1c32 [MW01-E18, 5-hydroxy-1,11,16-triazapentacyclo[10.7.1.0^2,^7.0^8,^20.0^13,^18]icosa-2(7),3,5,8(20),9,11,13(18),14,16-nonaen-19-one] | – | – | – | – | – | – | – | – | – | –
9 | 9 | 24 | 36 | 16 | COc1ccc2c(c1)c1ccnc3c4ccnc(OC)c4c(=O)n2c13 [MW01-E14, 5,17-dimethoxy-1,11,16-triazapentacyclo[10.7.1.0^2,^7.0^8,^20.0^13,^18]icosa-2(7),3,5,8(20),9,11,13(18),14,16-nonaen-19-one] | – | – | – | – | – | – | – | – | – | –
2 | 9 | 36 | 9 | 12 | COc1ccc2nc3c(cc2c1)c(N)nn3C(=O)c1cccc(N(C)C)c1 [MW05-E2, 1-[3-(dimethylamino)benzoyl]-6-methoxy-1H-pyrazolo[3,4-b]quinolin-3-amine] | – | – | – | – | – | – | – | – | – | –
71 | 18 | 80 | 90 | 31 | O=c1c2cc(O)ccc2c2nccc3c4cc(O)ccc4n1c32 [MW01-E10, 5,16-dihydroxy-1,11-diazapentacyclo[10.7.1.0^2,^7.0^8,^20.0^13,^18]icosa-2(7),3,5,8(20),9,11,13(18),14,16-nonaen-19-one] | – | – | – | – | – | – | – | – | – | –
